A short description of one data set: Toxicity in Vero cells. The conditions noted are these: African green monkey. It is filed as cell-based. On the procedure:
The cells dislodged from the flask were generally in clumps and were dispersed by repeated forceful pipetting of the suspension against the surface of the flask. To 1 ml of the well-dispersed cell suspension, 0.2 ml of trypan blue solution was added, and the number of cells were counted using a hemacytomer. Each day for the next 3 days, two of the remaining flasks were harvested in the manner just described for determination of cell number. Only data on day three are presented. This method has previously been described by Schinazi, et al., “Effect of Combination of Acyclovir, and Vidarabine or its 5′-monophosphate on Herpes Simplex Viruses in Cell Culture and in Mice,” Antimicrob. Agents Chemother. 22, 499-507 (1982)). Median-Effect Method: EC50 and IC50 values were obtained by analysis of the data using the median-effect equation (Chou, T., et al., “Quantitative Analysis of Dose-Effect Relationships: The Combined Effects of Multiple Drugs or Enzyme Inhibitors,” Adv. Enz. Regul. 22, 27-55 (1984).

The nature of data set [1]: PBM cell proliferation (cytotoxicity) assay. It is filed as cell-based. The conditions noted are these: human. The method, then:
PBM and CEM Cells Proliferation Assay: The drugs were evaluated for their potential toxic effects on uninfected PHA-stimulated human PBM cells and also in CEM cells. The cells were cultured with and without drug for 6 days at which time aliquots were counted for cell viability as described above. Median-Effect Method: EC50 and IC50 values were obtained by analysis of the data using the median-effect equation (Chou, T., et al., “Quantitative Analysis of Dose-Effect Relationships: The Combined Effects of Multiple Drugs or Enzyme Inhibitors,” Adv. Enz. Regul. 22, 27-55 (1984).

The subject of a further data set is HIV (LAV-I). As to the kind of experiment: HIV in human PBMC, P24 levels by EIA. It is filed as cell-based. The conditions noted are these: for inhibition at 0.001 µM / inhibition at 0.01 µM / inhibition at 1 µM / inhibition at 10 µM / inhibition at 0.1 µM / pEC50: Human immunodeficiency virus 1, PBMC. On the procedure: While the previous example measured RT activity, the present example utilizes a direct quantitation of a viral protein (P24) as an indicator of antiviral effectiveness.
Peripheral blood mononuclear (PBM) cells were infected with HIV and treated with methylene blue as described above. The EC50 levels were calculated from enzyme immuno-assay (EIA) measurements of viral coat protein P24. The P24-specific EIA kit was purchased from Abbott Labs.

A further data set concerns RNA virus R17. As to the kind of experiment: Inactivation of RNA virus R17, plaque titer on E. coli lawn. It is filed as cell-based, R17 phage. The conditions noted are these: for PFU: MB 0.05 uM. The method, then: Add 20 μl φ (R17 phage) stock to 2.0 ml dilution buffer and dispense 0.3 ml into each of tubes A-F. Next add methylene blue to give concentrations shown in Table 2 below. Pipet 270 μl of samples to be light treated into the #1 wells of a 96 well microtiter plate, corresponding to its letter label A-H. The samples in the microtiter plate were exposed to light through water (¼ cm) deep in a petri dish for 5 minutes. 270 μl of each sample not to be light treated was then added to wells in the plate.
R17 virus samples were also tested to determine the time of exposure of light required to inactivate the virus. […] The length of exposure was varied as follows:
Add 0.3 ml to well H2, treat with light 0-5 min. Add 0.3 ml to well G2, treat with light 5 min-7.5 min. Add 0.3 ml to well F2, treat with light 7.5 min-9.0 min. Add 0.3 ml to well E2, treat with light 9.0 min-9.5 min. Add 0.3 ml to well D2, treat with light 9.5 min-9.9 min. Add 0.3 ml to well C2, treat with light 9.9 min-10.0 min. Add 0.3 ml to well B, no light. Add 0.3 ml to well A, no light.

Data set [2] deals with T1, calf thymus DNA polymerase alpha (CT α pol) (Bos taurus, UniProt A0AAA9TD94).
T1 construct: calf thymus DNA polymerase alpha (CT α pol); from tissue; host or cells: calf thymus
T1 sequence (A0AAA9TD94 entry or part of it): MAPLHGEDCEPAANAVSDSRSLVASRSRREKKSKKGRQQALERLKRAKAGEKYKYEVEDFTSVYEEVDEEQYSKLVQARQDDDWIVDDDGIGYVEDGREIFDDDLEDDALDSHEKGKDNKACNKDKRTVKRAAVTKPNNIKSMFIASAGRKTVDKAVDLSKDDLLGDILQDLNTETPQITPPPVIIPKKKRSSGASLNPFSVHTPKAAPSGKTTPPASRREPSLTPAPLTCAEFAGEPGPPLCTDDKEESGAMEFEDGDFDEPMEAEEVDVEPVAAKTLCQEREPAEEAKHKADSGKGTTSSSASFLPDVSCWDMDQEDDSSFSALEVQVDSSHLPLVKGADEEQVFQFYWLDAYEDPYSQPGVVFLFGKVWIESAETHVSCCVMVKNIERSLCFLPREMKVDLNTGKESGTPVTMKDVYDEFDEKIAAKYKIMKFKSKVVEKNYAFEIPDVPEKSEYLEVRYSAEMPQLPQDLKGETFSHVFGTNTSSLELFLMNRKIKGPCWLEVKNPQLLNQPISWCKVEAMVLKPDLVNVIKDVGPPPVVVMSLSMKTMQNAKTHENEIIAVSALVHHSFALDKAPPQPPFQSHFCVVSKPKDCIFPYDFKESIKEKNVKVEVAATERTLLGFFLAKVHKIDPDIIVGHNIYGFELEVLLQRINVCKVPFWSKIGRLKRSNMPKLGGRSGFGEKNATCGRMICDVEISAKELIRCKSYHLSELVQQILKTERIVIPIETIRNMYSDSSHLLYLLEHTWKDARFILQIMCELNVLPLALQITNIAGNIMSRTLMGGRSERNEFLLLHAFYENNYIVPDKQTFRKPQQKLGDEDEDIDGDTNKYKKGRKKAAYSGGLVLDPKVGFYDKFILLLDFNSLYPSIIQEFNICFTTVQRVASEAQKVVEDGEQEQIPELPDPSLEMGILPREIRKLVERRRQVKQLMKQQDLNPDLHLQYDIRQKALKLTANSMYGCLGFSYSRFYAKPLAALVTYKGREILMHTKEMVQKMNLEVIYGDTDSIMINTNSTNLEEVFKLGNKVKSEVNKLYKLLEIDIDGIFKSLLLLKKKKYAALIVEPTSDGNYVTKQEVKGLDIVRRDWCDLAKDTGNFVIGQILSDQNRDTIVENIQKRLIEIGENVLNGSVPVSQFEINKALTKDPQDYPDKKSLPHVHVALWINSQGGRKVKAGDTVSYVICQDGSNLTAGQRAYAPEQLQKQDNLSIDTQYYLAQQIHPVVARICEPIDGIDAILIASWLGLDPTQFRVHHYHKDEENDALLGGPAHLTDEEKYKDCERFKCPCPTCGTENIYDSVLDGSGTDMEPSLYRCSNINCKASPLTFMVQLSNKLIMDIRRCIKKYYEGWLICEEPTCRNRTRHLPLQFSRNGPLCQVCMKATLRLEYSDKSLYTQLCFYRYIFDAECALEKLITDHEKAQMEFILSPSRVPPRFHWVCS
As to the kind of experiment: DNA polymerase alpha enzyme assay. It is filed as biochemical. From the text: (§1) Enzyme Assays: The preparation of the enzyme and the assay conditions used, were recently described by Schinazi, et al., Antimicrob. Agents Chemother. 33, 115-117 (1989). HIV-1 RT and cellular DNA polymerase alpha were isolated from infected and uninfected PHA-stimulated human PBM cells according to traditional methods (Eriksson, B., et al., Antimicrob. Agents Chemother. 31, 600-604, (1987); Furman, et al., Proc. Natl. Acad. Sci. USA 83, 8333-8337, (1986); Abrell, et al., J. Virol. 12, 431-439, (1973).
(§2) Assays. Reaction mixtures (100 μl) contained:
(§3) The reactions were started by the addition of 10 μl of purified enzyme, incubated at 37° C. for the indicated periods of time and processed as described in Eriksson, et al., Antimicrob. Agents Chemother. 31, 600-604 (1987).
(§4) Median-Effect Method: EC50 and IC50 values were obtained by analysis of the data using the median-effect equation (Chou, T., et al., “Quantitative Analysis of Dose-Effect Relationships: The Combined Effects of Multiple Drugs or Enzyme Inhibitors,” Adv. Enz. Regul. 22, 27-55 (1984).
(§5) The effect of methylene blue on two DNA polymerizing enzymes, HIV reverse transcriptase (RT) and calf thymus DNA polymerase alpha (CT α pol), was also studied.

Data set [3] deals with T2, HIV-1 reverse transcriptase (RT) (Human immunodeficiency virus type 1 group M subtype B, UniProt P03367).
T2 construct: HIV reverse transcriptase (RT); endogenous in cells; host or cells: HIV-1-infected PHA-stimulated human PBM cells
As to the kind of experiment: HIV-1 reverse transcriptase enzyme assay. It is filed as biochemical.
From the text: as §1, §2, §3, §4, §5

For data set [4] the following is noted: cited from earlier work.

The values below come from US6346529B1, “Antiviral therapy using thiazine dyes” (Oklahoma Medical Research Foundation, priority 1988, dated 2002).

As a reminder, the IC50 is the concentration that gives 50% inhibition. What is called inhibition is the change of the read-out against control, counted positive when it falls. A word on the pEC50: it is the negative decadic logarithm of the EC50, by convention in mol/L. By pIC50 is commonly meant the IC50 on a negative log10 scale, so that one unit is a factor of ten.

Molecules are shown by their SMILES. pEC50, pIC50: −log10 of the molar value. Read-outs that look alike come from different tables or passages of the source.

For `Nc1nc2c(ncn2COCCO)c(=O)[nH]1` [ACV, Acyclovir], in “Toxicity in Vero cells”, the IC50 at 3 days worked out at 1700 µM. In data set [1], the IC50 at 6 days is above 100 µM.
On to `CN(C)c1ccc2nc3ccc(N(C)C)cc3[s+]c2c1.[Cl-]` [MB, 3,7-Bis(dimethylamino)phenothiazin-5-ium chloride], for which the “ng P24/ml” value in the data set with HIV (LAV-I) (Dark, 0.001 μM) is on record as 356.0 ng P24/ml; with HIV (LAV-I) (Dark, 0.01 μM), 270.2 ng P24/ml; in the data set on HIV (LAV-I) (Dark, 1 μM), 84.1 ng P24/ml; with HIV (LAV-I) (Dark, 10 μM), 5.4 ng P24/ml; with HIV (LAV-I) (Dark, .1 μM) it was 287.2 ng P24/ml; with HIV (LAV-I) (Light, 0.001 μM), 370.5 ng P24/ml. Also, the “ng P24/ml” value in the data set on HIV (LAV-I) (Light, 0.01 μM) came out at 370.5 ng P24/ml; with HIV (LAV-I) (Light, 1 μM) it was 5.1 ng P24/ml; in the data set on HIV (LAV-I) (Light, 10 μM), 2.2 ng P24/ml; in the data set with HIV (LAV-I) (Light, .1 μM), 302.2 ng P24/ml. Further, the inhibition at 0.001 µM in the data set with HIV (LAV-I) (read-out: % Inhibition (corrected), Dark, 0.001 μM) is 0.8%; in the data set on HIV (LAV-I) (read-out: % Inhibition (corrected), Light, 0.001 μM), -3.2%. Also, the inhibition at 0.01 µM with HIV (LAV-I) (read-out: % Inhibition (corrected), Dark, 0.01 μM) was 24.7%; in the data set on HIV (LAV-I) (read-out: % Inhibition (corrected), Light, 0.01 μM), -3.2%. In addition, the inhibition at 1 µM with HIV (LAV-I) (read-out: % Inhibition (corrected), Dark, 1 μM) worked out at 76.6%; with HIV (LAV-I) (read-out: % Inhibition (corrected), Light, 1 μM), 98.6%. Also, the inhibition at 10 µM in the data set with HIV (LAV-I) (read-out: % Inhibition (corrected), Dark, 10 μM) was 98.5%; with HIV (LAV-I) (read-out: % Inhibition (corrected), Light, 10 μM) it was 99.4%. The inhibition at 0.1 µM is 20% in the data set on HIV (LAV-I) (read-out: % Inhibition (corrected), Dark, .1 μM) and 15.8% with HIV (LAV-I) (read-out: % Inhibition (corrected), Light, .1 μM). Besides, the pEC50 was 6.48 with HIV (LAV-I) (read-out: EC50 (P24), Dark) and 7.62 in the data set on HIV (LAV-I) (read-out: EC50 (P24), Light). In the data set with RNA virus R17 (0.05 μM methylene blue), the “light exposure inactivating infectivity 50%” value amounted to 45 s. In addition, the pfu/ml is reported as 5.04 × 10^10 pfu/ml in the data set on RNA virus R17 (MB 0.02 uM, light 5′ yes); 1.11 × 10^10 pfu/ml in the data set on RNA virus R17 (MB 0.04 uM, light 5′ yes); 3.25 × 10^5 pfu/ml in the data set on RNA virus R17 (MB 0.2 uM, light 5′ yes); 3.00 × 10^3 pfu/ml in the data set on RNA virus R17 (MB 2.0 uM, light 5′ yes); 4.80 × 10^10 pfu/ml with RNA virus R17 (MB 2.0 uM, light no); 4.20 × 10^4 pfu/ml in the data set on RNA virus R17 (MB 20.0 uM, light 5′ yes). Also, the pfu/ml with RNA virus R17 (MB 20.0 uM, light no) is given as 3.00 × 10^9 pfu/ml. Further, in the data set on RNA virus R17 (MB 0.05 uM and light), the “t½ of R17 inactivation” value fell in the range of 48 to 60 s. Besides, the PFU in the data set with RNA virus R17 (light 0.1 min) is 3.3 × 10^9/ml PFU/ml; with RNA virus R17 (light 0.5 min) it was 5.0 × 10^9/ml PFU/ml; in the data set with RNA virus R17 (light 2.5 min) it was 9.1 × 10^7/ml PFU/ml; with RNA virus R17 (light 5.0 min) it was 6.93 × 10^7/ml PFU/ml; with RNA virus R17 (light exposure none), 2.76 × 10^9/ml PFU/ml. In addition, the negative logarithm of the IC50 (pIC50) in data set [2] (Dark) was 3.98; in data set [2] (Light) it was 3.90; in data set [3] (Dark), 5.00; in data set [3] (Light) it was 5.04. Moreover, in data set [4] (American Hospital Formulary Service), the “absorption from the GI tract” value is on record as “absorbed well from the GI tract”. For the same compound, the “excreted in urine and via the bile” value in data set [4] (mostly as leukomethylene blue) is on record as “about 75%”.
